One data set concerns A2780. As to the kind of experiment: Cytotoxicity against human A2780 cells after 96 hrs by MTT assay. The following applies: A2780, 96 h. It counts as functional, cell-based. A general note: Tetrazolium assays rely on reduction of a dye to a coloured formazan, in cell work by metabolically active cells.
For a further data set, the system named is BGC-823. As to the kind of experiment: Cytotoxicity against human BGC823 cells after 96 hrs by MTT assay. The following applies: BGC-823, 96 h. It counts as functional, cell-based.
Another data set relates to A549. In words: Cytotoxicity against human A549 cells after 96 hrs by MTT assay. In kind it is functional, cell-based. The following applies: A549, 96 h.
The next data set relates to HCT-8. In words: Cytotoxicity against human HCT8 cells after 96 hrs by MTT assay. It counts as functional, cell-based. To be noted: HCT-8, 96 h.
The nature of data set [1]: Toxicity in rabbit erythrocytes assessed as hemolysis at 0.01 uM to 100 uM. It counts as cell-based, Oryctolagus cuniculus. To be noted: erythrocyte.
Another data set relates to Bel-7402. In words: Cytotoxicity against human Bel7402 cells after 96 hrs by MTT assay. In kind it is functional, cell-based. To be noted: Bel-7402, 96 h.

A value given as a limit tells only on which side of the number the result lay.

For the compound `C/C(=C\CO)CC/C=C(\CO)C(=O)O[C@H]1C[C@]2(C(=O)O[C@@H]3O[C@H](CO)[C@@H](O)[C@H](O)[C@H]3O[C@@H]3O[C@@H](C)[C@H](O[C@@H]4O[C@@H](CO)[C@H](O)[C@H]4O)[C@@H](O[C@@H]4O[C@H](CO)[C@@H](O)[C@H](O)[C@H]4O)[C@H]3O)[C@H](O)C[C@]3(C)C(=CC[C@@H]4[C@@]5(C)CC[C@H](O[C@@H]6O[C@H](CO[C@@H]7O[C@H](C)[C@H](O)[C@H](O)[C@H]7O[C@@H]7OC[C@@H](O)[C@H](O)[C@H]7O)[C@@H](O)[C@H](O)[C@H]6O)C(C)(C)[C@@H]5CC[C@]43C)[C@@H]2CC1(C)C` [PITHELUCOSIDE C], the IC50 (in general, the concentration needed to halve the response being measured) was 1.66 µM in the data set on A2780; > 10 µM with BGC-823; > 10 µM in the data set with A549; 4.24 µM with HCT-8; 7.56 µM in the data set with Bel-7402. Besides, in data set [1], the Activity entry was “Non-toxic”.

In the case of `C[C@H]1O[C@@H](OC[C@H]2O[C@@H](O[C@H]3CC[C@]4(C)[C@H]5CC=C6[C@@H]7CC(C)(C)[C@@H](O)C[C@]7(C(=O)O)[C@H](O)C[C@@]6(C)[C@]5(C)CC[C@H]4C3(C)C)[C@H](O)[C@@H](O)[C@@H]2O)[C@H](O[C@@H]2OC[C@@H](O)[C@H](O)[C@H]2O)[C@@H](O)[C@H]1O`, the half-inhibitory concentration (IC50) in the data set with A2780, with BGC-823, in the data set with A549, in the data set on HCT-8 and in the data set with Bel-7402 was > 10 µM in each case. Moreover, the Activity result in data set [1] was “Non-toxic”.

As to `C=C[C@](C)(O)CC/C=C(\CO)C(=O)O[C@H]1C[C@]2(C(=O)O[C@@H]3O[C@H](CO)[C@@H](O)[C@H](O)[C@H]3O[C@@H]3O[C@@H](C)[C@H](O[C@@H]4O[C@@H](CO)[C@H](O)[C@H]4O)[C@@H](O[C@@H]4O[C@H](CO)[C@@H](O)[C@H](O)[C@H]4O)[C@H]3O)[C@H](O)C[C@]3(C)C(=CC[C@@H]4[C@@]5(C)CC[C@H](O[C@@H]6O[C@H](CO[C@@H]7O[C@H](C)[C@H](O)[C@H](O)[C@H]7O[C@@H]7OC[C@@H](O)[C@H](O)[C@H]7O)[C@@H](O)[C@H](O)[C@H]6O)C(C)(C)[C@@H]5CC[C@]43C)[C@@H]2CC1(C)C` [PITHELUCOSIDE B], the IC50 is 1.23 µM with A2780; > 10 µM with BGC-823; > 10 µM with A549; > 10 µM with HCT-8; 2.54 µM in the data set with Bel-7402. Moreover, the Activity result in data set [1] is listed as “Non-toxic”.

With `CC[C@@]1(O)C(=O)OCc2c1cc1n(c2=O)Cc2cc3ccccc3nc2-1` [CAMPTOTHECIN], the IC50 is 0.28 µM with A2780; 9.67 µM in the data set on BGC-823; 3.12 µM in the data set with A549; 3.15 µM in the data set on HCT-8; 12.5 µM in the data set on Bel-7402.

For the compound `C=C[C@@](C)(CC/C=C(\CO)C(=O)O[C@H]1C[C@]2(C(=O)O[C@@H]3O[C@H](CO)[C@@H](O)[C@H](O)[C@H]3O[C@@H]3O[C@@H](C)[C@H](O[C@@H]4O[C@@H](CO)[C@H](O)[C@H]4O)[C@@H](O[C@@H]4O[C@H](CO)[C@@H](O)[C@H](O)[C@H]4O)[C@H]3O)[C@H](O)C[C@]3(C)C(=CC[C@@H]4[C@@]5(C)CC[C@H](O[C@@H]6O[C@H](CO[C@@H]7O[C@H](C)[C@H](O)[C@H](O)[C@H]7O[C@@H]7OC[C@@H](O)[C@H](O)[C@H]7O)[C@@H](O)[C@H](O)[C@H]6NC(C)=O)C(C)(C)[C@@H]5CC[C@]43C)[C@@H]2CC1(C)C)O[C@@H]1O[C@H](C)[C@@H](O)[C@H](O)[C@H]1O` [JULIBROSIDE J29], the IC50 in the data set on A2780 is 0.61 µM; in the data set on BGC-823, 1.9 µM; in the data set with A549 it was 1.8 µM; with HCT-8, 1.5 µM; in the data set on Bel-7402 it was 1.65 µM. Also, the Activity result in data set [1] is “Non-toxic”.

As for `C=C[C@@](C)(CC/C=C(\CO)C(=O)O[C@H]1C[C@]2(C(=O)O[C@@H]3O[C@H](CO)[C@@H](O)[C@H](O)[C@H]3O[C@@H]3O[C@@H](C)[C@H](O[C@@H]4O[C@@H](CO)[C@H](O)[C@H]4O)[C@@H](O[C@@H]4O[C@H](C)[C@@H](O)[C@H](O)[C@H]4O)[C@H]3O)[C@H](O)C[C@]3(C)C(=CC[C@@H]4[C@@]5(C)CC[C@H](O[C@@H]6O[C@H](CO[C@@H]7O[C@H](C)[C@H](O)[C@H](O)[C@H]7O[C@@H]7OC[C@@H](O)[C@H](O)[C@H]7O)[C@@H](O)[C@H](O)[C@H]6O)C(C)(C)[C@@H]5CC[C@]43C)[C@@H]2CC1(C)C)O[C@@H]1O[C@H](C)[C@@H](O)[C@H](O)[C@H]1O` [PITHELUCOSIDE A], the half-inhibitory concentration (IC50) in the data set on A2780, with BGC-823, in the data set on A549, in the data set on HCT-8 and in the data set with Bel-7402 was > 10 µM in each case. Further, the Activity entry in data set [1] was “Non-toxic”.

Consider `C=C[C@@](C)(CC/C=C(\CO)C(=O)O[C@H]1C[C@]2(C(=O)O[C@@H]3O[C@H](CO)[C@@H](O)[C@H](O)[C@H]3O[C@@H]3O[C@@H](C)[C@H](O[C@@H]4O[C@@H](CO)[C@H](O)[C@H]4O)[C@@H](O[C@@H]4O[C@H](CO)[C@@H](O)[C@H](O)[C@H]4O)[C@H]3O)[C@H](O)C[C@]3(C)C(=CC[C@@H]4[C@@]5(C)CC[C@H](O[C@@H]6O[C@H](CO[C@@H]7O[C@H](C)[C@H](O)[C@H](O)[C@H]7O[C@@H]7OC[C@@H](O)[C@H](O)[C@H]7O)[C@@H](O)[C@H](O)[C@H]6O)C(C)(C)[C@@H]5CC[C@]43C)[C@@H]2CC1(C)C)O[C@@H]1O[C@H](C)[C@@H](O)[C@H](O)[C@H]1O`, for which the IC50 was 1.35 µM in the data set on A2780; > 10 µM in the data set with BGC-823; > 10 µM in the data set on A549; 1.5 µM in the data set on HCT-8; > 10 µM with Bel-7402. The Activity entry in data set [1] is recorded as “Non-toxic”.

Values taken from ChEMBL document CHEMBL1142427, “Cytotoxic triterpenoid saponins acylated with monoterpenic acid from Pithecellobium lucidum” (J Nat Prod, 2008).
